{
  "source": "paper PMC11134331",
  "about": "“Cell-active small molecule inhibitors validate the SNM1A DNA repair nuclease as a cancer target” (Chemical Science, 2024)",
  "format_in_all_cases": "biochemical",
  "key": {"SNM1A": {"target": "T1, SNM1A (Homo sapiens, UniProt Q6PJP8)", "T1 sequence (Q6PJP8 676-1040)": "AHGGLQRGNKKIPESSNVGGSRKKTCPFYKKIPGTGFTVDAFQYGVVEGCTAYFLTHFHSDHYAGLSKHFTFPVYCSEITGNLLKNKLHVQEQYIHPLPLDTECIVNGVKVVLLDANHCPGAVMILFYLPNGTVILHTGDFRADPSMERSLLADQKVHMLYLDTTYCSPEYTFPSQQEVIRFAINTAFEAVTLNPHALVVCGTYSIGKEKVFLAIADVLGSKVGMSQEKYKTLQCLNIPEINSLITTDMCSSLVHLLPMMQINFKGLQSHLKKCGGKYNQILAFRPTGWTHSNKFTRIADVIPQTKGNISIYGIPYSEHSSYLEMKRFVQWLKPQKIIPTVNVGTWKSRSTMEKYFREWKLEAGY", "experiment": "gel-based nuclease assay, SNM1A", "set-up": "DNA encoding for the MBL and β-CASP domains of SNM1A (aa 676–1040) was cloned into the baculovirus transfer vector pFB-LIC-Bse; inferred from vector pFB-LIC-Bse and the IMAC purification; made in house; host or cells: Sf9 insect cells (baculovirus)", "from_the_text": "(§1) To validate the inhibition of SNM1A, SNM1B, and SNM1C observed in the fluorescence-based screening assays, we then performed gel-based assays using 3′ terminally-labelled oligonucleotide substrates that enable both quantitative and qualitative (visual) assessment of the pattern of inhibition, for a subset of compounds. Importantly, whereas the fluorescence-based assay measures a single hydrolytic event at the substrate terminus, the gel-based nuclease assay informs on the pattern of digestion of the entire 51-mer substrate DNA over time.\n(§2) Standard exonuclease assays were carried out in a 10 μL final volume containing 20 mM HEPES-KOH, pH 7.5, 50 mM KCl, 0.5 mM TCEP, 10 mM MgCl2, 0.05% (v/v) Triton X-100, 5% (v/v) glycerol, and SNM1 proteins as indicated. Inhibitors were dissolved in DMSO and diluted immediately prior to the reaction in the above buffer. Inhibitors were serially diluted two-fold from 100 μM. The DMSO concentration was kept constant at 0.1% (v/v) in the final reaction mixture. Inhibitors were incubated with the indicated SNM1 enzyme for 10 minutes at room temperature; reactions were initiated by addition of 10 nM DNA substrate and incubated at 37 °C for 20 min. Reactions were quenched by addition of 5 μL stop solution (95% formamide, 10 mM EDTA, 0.25% (v/v) xylene cyanol, 0.25% (v/v) bromophenol blue) and heated at 95 °C for 3 min. Reactions were analysed by 20% denaturing polyacrylamide gel electrophoresis solution of 19 : 1 acrylamide:bis-acrylamide, BioRad and 7 M urea (Sigma Aldrich) in 1 × TBE (Tris-borate EDTA) buffer. Electrophoresis was carried out at 525 V for 75 minutes; gels were subsequently fixed for 60 minutes in a 50% (v/v) methanol, 10% (v/v) acetic acid solution, and dried at 80 °C for two hours under vacuum. Dried gels were exposed to a Kodak Phosphor imager screen and scanned using a Typhoon 9500 instrument (GE Healthcare), scanned images were quantified using ImageJ."}, "SNM1B": {"target": "T2, SNM1B (Homo sapiens, UniProt Q9H816)", "T2 construct": "for the MBL and β-CASP domains of SNM1B (aa 1–335) into baculoviral expression vectors pFB-CT10HF-LIC; made in house; host or cells: Sf9 insect cells (baculovirus)", "T2 sequence (Q9H816 1-335)": "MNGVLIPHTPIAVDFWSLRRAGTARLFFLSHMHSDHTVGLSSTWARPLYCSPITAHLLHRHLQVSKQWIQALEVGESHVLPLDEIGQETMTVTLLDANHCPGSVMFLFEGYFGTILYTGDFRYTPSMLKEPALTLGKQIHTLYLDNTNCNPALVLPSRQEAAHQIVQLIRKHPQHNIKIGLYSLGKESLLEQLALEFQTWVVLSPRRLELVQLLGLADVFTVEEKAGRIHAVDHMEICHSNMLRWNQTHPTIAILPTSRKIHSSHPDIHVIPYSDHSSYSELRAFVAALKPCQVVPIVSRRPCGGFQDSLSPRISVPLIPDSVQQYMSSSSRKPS", "experiment": "gel-based nuclease assay, SNM1B", "conditions": "1 nM SNM1B", "from_the_text": "as §1, §2\nSuppl. Figure 10. Increasing concentrations (as indicated, in μM) of compounds incubated with 1 nM SNM1B or 2.5 nM SNM1C (room temperature, 10 min), before initiating nuclease reaction by addition of ssDNA (37 °C, 20 min). Products were analysed by 20% denaturing PAGE. Gels are representative versions from a minimum of three independent experimental repeats.\n(1 picture or pasted object on this page, not shown here)"}, "SNM1C": {"target": "T3, SNM1C (Homo sapiens, UniProt Q96SD1)", "T3 construct": "for the MBL and β-CASP domains of SNM1C (aa 1–362) into the baculovirus expression vector pBF-6HZB; made in house; host or cells: Sf9 insect cells (baculovirus)", "T3 sequence (Q96SD1 1-362)": "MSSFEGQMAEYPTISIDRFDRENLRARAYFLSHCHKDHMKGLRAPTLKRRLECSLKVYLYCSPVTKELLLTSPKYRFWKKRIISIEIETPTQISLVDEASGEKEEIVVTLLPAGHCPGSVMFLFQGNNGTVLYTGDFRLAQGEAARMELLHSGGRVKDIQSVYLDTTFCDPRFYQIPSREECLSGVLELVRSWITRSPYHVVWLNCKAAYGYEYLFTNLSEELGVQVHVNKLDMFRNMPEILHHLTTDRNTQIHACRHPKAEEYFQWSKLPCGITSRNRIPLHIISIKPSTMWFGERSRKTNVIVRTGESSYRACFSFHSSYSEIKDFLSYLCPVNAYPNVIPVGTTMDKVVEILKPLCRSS", "experiment": "gel-based nuclease assay, SNM1C", "conditions": "2.5 nM SNM1C", "from_the_text": "as §1, §2\nSuppl. Figure 10. […] Products were analysed by 20% denaturing PAGE. […]"}},
  "note": "Like-named read-outs stand apart in the source and are kept apart here.",
  "data": [
    {"molecule": "C[C@H](Nc1nc(NCc2ccco2)nc2ccc(Cl)cc12)C(=O)NO", "note": "[compound 19]", "values": [
      {"measurement": "inhibition of SNM1A in gel-based assay", "setting": "SNM1A; 0.5 nM SNM1A", "result": "inhibits each of SNM1A–C"},
      {"measurement": "IC50", "setting": "SNM1A; Suppl. Figure 11C, three independent experiments, read-out: SNM1A IC50 estimated from densitometric analysis of gel based assays", "result": 7.6, "unit": "µM"},
      {"measurement": "IC50", "setting": "SNM1A; direct quantification of ratio between intact substrate and digestion product, read-out: SNM1A IC50 estimated from gel-based assay", "result": "~8", "unit": "µM"},
      {"measurement": "inhibition of SNM1B in gel-based assay", "setting": "SNM1B", "result": "inhibits each of SNM1A–C"},
      {"measurement": "inhibition of SNM1C in gel-based assay", "setting": "SNM1C", "result": "inhibits each of SNM1A–C"}
    ]}
  ]
}
